Test results: patent publication US8178522B2, “Thiazoles” (Hoffmann-La Roche Inc., priority 2009, dated 2012)

Target: T1, GABA A α5 (α5β3γ2) (Homo sapiens, UniProt P18507+P31644)
T1 construct: expressed in transfected cells; host or cells: HEK293, transiently transfected; membrane preparation
Assay: [3H]flumazenil competition binding, human GABA A α5 receptor
Conditions: human receptor α5β3γ2 transiently transfected in HEK293 cells; competition for [3H]flumazenil 0.5 nM; 1 hour at 4° C.; means of two determinations; read-out: hKi GABA A α5
Procedure: Membrane Preparation and Binding Assay
The affinity of compounds at GABA A receptor subtypes was measured by competition for [3H]flumazenil (85 Ci/mmol; Roche) binding to HEK293 cells expressing rat (stably transfected) or human (transiently transfected) receptors of compositional α1β3γ2, α2β3γ2, α3β3γ2 and α5β3γ2.
Cell pellets were suspended in Krebs-tris buffer (4.8 mM KCl, 1.2 mM CaCl2, 1.2 mM MgCl2, 120 mM NaCl, 15 mM Tris; pH 7.5; binding assay buffer), homogenized by polytron for ca. 20 sec on ice and centrifuged for 60 min at 4° C. (50000 g; Sorvall, rotor: SM24=20000 rpm). The cell pellets were re-suspended in Krebs-tris buffer and homogenized by polytron for ca. 15 sec on ice. Protein was measured (Bradford method, Bio-Rad) and aliquots of 1 mL were prepared and stored at −80° C.
Assays were incubated to equilibrium for 1 hour at 4° C. and harvested onto GF/C uni-filters (Packard) by filtration using a Packard harvester and washing with ice-cold wash buffer (50 mM Tris; pH 7.5). After drying, filter-retained radioactivity was detected by liquid scintillation counting. Ki values were calculated using Excel-Fit (Microsoft) and are the means of two determinations.

| Ki | Structure (SMILES) |
| --- | --- |
| 7.9 nM | Cc1nc(CCc2c(-c3ccccc3)noc2C)sc1C(=O)NC(C)CO (racemic) [Example 3, Rac-4-Methyl-2-[2-(5-methyl-3-phenyl-isoxazol-4-yl)-ethyl]-thiazole-5-carboxylic acid (2-hydroxy-1-methyl-ethyl)-amide] |
| 15.2 nM | CCCCc1noc(C)c1CCc1nc(C)c(C(=O)NC2CCOC2)s1 (racemic) [Example 52, Rac-2-[2-(3-Butyl-5-methyl-isoxazol-4-yl)-ethyl]-4-methyl-thiazole-5-carboxylic acid (tetrahydro-furan-3-yl)-amide] |
| 4.7 nM | CCCCc1noc(C)c1/C=C/c1nc(C)c(C(=O)NC(C)CO)s1 (racemic) [Example 97, Rac-2-[(E)-2-(3-Butyl-5-methyl-isoxazol-4-yl)-vinyl]-4-methyl-thiazole-5-carboxylic acid (2-hydroxy-1-methyl-ethyl)-amide] |
| 3.1 nM | CCCCc1noc(C)c1/C=C/c1nc(C)c(C(=O)NC(CC)CO)s1 (racemic) [Example 104, Rac-2-[(E)-2-(3-Butyl-5-methyl-isoxazol-4-yl)-vinyl]-4-methyl-thiazole-5-carboxylic acid (1-hydroxymethyl-propyl)-amide] |
| 19.2 nM | CCCCc1noc(C)c1COc1ncc(C(=O)NC(C)CO)s1 (racemic) [Example 133, Rac-2-(3-Butyl-5-methyl-isoxazol-4-ylmethoxy)-thiazole-5-carboxylic acid (2-hydroxy-1-methyl-ethyl)-amide] |
| 10.9 nM | Cc1nc(CCc2c(-c3ccccc3)noc2C)sc1C(=O)NC1CCOC1 (stereo in doubt) [Example 2, (S)-4-Methyl-2-[2-(5-methyl-3-phenyl-isoxazol-4-yl)-ethyl]-thiazole-5-carboxylic acid (tetrahydro-furan-3-yl)-amide] |
| 1.7 nM | Cc1onc(-c2ccccc2)c1/C=C/c1ncc(C(=O)NC2CCOC2)s1 (stereo in doubt) [Example 64, (S)-2-[(E)-2-(5-Methyl-3-phenyl-isoxazol-4-yl)-vinyl]-thiazole-5-carboxylic acid (tetra-hydro-furan-3-yl)-amide] |
| 6.4 nM | CCCCc1noc(C)c1/C=C/c1nc(C)c(C(=O)NC2CCCC2O)s1 (stereo in doubt) [Example 114, 2-[(E)-2-(3-Butyl-5-methyl-isoxazol-4-yl)-vinyl]-4-methyl-thiazole-5-carboxylic acid ((1R,2R)-2-hydroxy-cyclopentyl)-amide] |
| 5.7 nM | Cc1nc(CCc2c(-c3ccccc3)noc2C)sc1C(=O)NC(C)C [Example 1, 4-Methyl-2-[2-(5-methyl-3-phenyl-isoxazol-4-yl)-ethyl]-thiazole-5-carboxylic acid iso-propylamide] |
| 37.8 nM | Cc1nc(CCc2c(-c3ccccc3)noc2C)sc1C(=O)NCC(C)(C)O [Example 4, 4-Methyl-2-[2-(5-methyl-3-phenyl-isoxazol-4-yl)-ethyl]-thiazole-5-carboxylic acid (2-hydroxy-2-methyl-propyl)-amide] |
| 8.2 nM | Cc1nc(CCc2c(-c3ccccc3)noc2C)sc1C(=O)NC1CCOCC1 [Example 5, 4-Methyl-2-[2-(5-methyl-3-phenyl-isoxazol-4-yl)-ethyl]-thiazole-5-carboxylic acid (tetrahydro-pyran-4-yl)-amide] |
| 33.7 nM | Cc1nc(CCc2c(-c3ccccc3)noc2C)sc1C(N)=O [Example 6, 4-Methyl-2-[2-(5-methyl-3-phenyl-isoxazol-4-yl)-ethyl]thiazole-5-carboxylic acid amide] |
| 13.8 nM | Cc1onc(-c2ccccc2)c1CCc1ncc(C(=O)NC(C)C)s1 [Example 7, 2-[2-(5-Methyl-3-phenyl-isoxazol-4-yl)-ethyl]-thiazole-5-carboxylic acid isopropyl-amide] |
| 20.3 nM | COC(=O)c1sc(CCc2c(-c3ccccn3)noc2C)nc1C [Example 8, 4-Methyl-2-[2-(5-methyl-3-pyridin-2-yl-isoxazol-4-yl)-ethyl]-thiazole-5-carboxylic acid methyl ester] |
| 5.7 nM | Cc1nc(CCc2c(-c3ccccn3)noc2C)sc1C(=O)NC1CCOCC1 [Example 9, 4-Methyl-2-[2-(5-methyl-3-pyridin-2-yl-isoxazol-4-yl)-ethyl]-thiazole-5-carboxylic acid (tetrahydro-pyran-4-yl)-amide] |
| 4.3 nM | Cc1nc(CCc2c(-c3ccccn3)noc2C)sc1C(=O)NC(C)C [Example 10, 4-Methyl-2-[2-(5-methyl-3-pyridin-2-yl-isoxazol-4-yl)-ethyl]-thiazole-5-carboxylic acid isopropylamide] |
| 7.7 nM | Cc1nc(CCc2c(-c3ccccn3)noc2C)sc1C(=O)NC1CC1 [Example 11, 4-Methyl-2-[2-(5-methyl-3-pyridin-2-yl-isoxazol-4-yl)-ethyl]-thiazole-5-carboxylic acid cyclopropylamide] |

| Ki | Structure (SMILES) |
| --- | --- |
| 13.4 nM | Cc1nc(CCc2c(-c3ccccn3)noc2C)sc1C(=O)NCC1CC1 [Example 12, 4-Methyl-2-[2-(5-methyl-3-pyridin-2-yl-isoxazol-4-yl)-ethyl]-thiazole-5-carboxylic acid cyclopropylmethyl-amide] |
| 4.2 nM | Cc1nc(CCc2c(-c3ccccn3)noc2C)sc1C(=O)NCC(F)(F)F [Example 13, 4-Methyl-2-[2-(5-methyl-3-pyridin-2-yl-isoxazol-4-yl)-ethyl]-thiazole-5-carboxylic acid (2,2,2-trifluoro-ethyl)-amide] |
| 14.1 nM | Cc1nc(CCc2c(-c3ccccn3)noc2C)sc1C(=O)NCCO [Example 14, 4-Methyl-2-[2-(5-methyl-3-pyridin-2-yl-isoxazol-4-yl)-ethyl]-thiazole-5-carboxylic acid (2-hydroxy-ethyl)-amide] |
| 12 nM | CCNC(=O)c1sc(CCc2c(-c3ccccn3)noc2C)nc1C [Example 15, 4-Methyl-2-[2-(5-methyl-3-pyridin-2-yl-isoxazol-4-yl)-ethyl]-thiazole-5-carboxylic acid ethylamide] |
| 21.3 nM | CNC(=O)c1sc(CCc2c(-c3ccccn3)noc2C)nc1C [Example 16, 4-Methyl-2-[2-(5-methyl-3-pyridin-2-yl-isoxazol-4-yl)-ethyl]-thiazole-5-carboxylic acid methylamide] |
| 42.8 nM | Cc1nc(CCc2c(-c3ccccn3)noc2C)sc1C(=O)N1CCSCC1 [Example 17, {4-Methyl-2-[2-(5-methyl-3-pyridin-2-yl-isoxazol-4-yl)-ethyl]-thiazol-5-yl}-thiomorpholin-4-yl-methanone] |
| 32.3 nM | Cc1nc(CCc2c(-c3ccccn3)noc2C)sc1C(N)=O [Example 18, 4-Methyl-2-[2-(5-methyl-3-pyridin-2-yl-isoxazol-4-yl)-ethyl]-thiazole-5-carboxylic acid amide] |
| 87.6 nM | Cc1nc(CCc2conc2-c2ccccn2)sc1C(=O)NC1CCOCC1 [Example 19, 4-Methyl-2-[2-(3-pyridin-2-yl-isoxazol-4-yl)-ethyl]-thiazole-5-carboxylic acid (tetra-hydro-pyran-4-yl)-amide] |
| 90.5 nM | Cc1nc(CCc2conc2-c2ccccn2)sc1C(=O)NCC(F)(F)F [Example 20, 4-Methyl-2-[2-(3-pyridin-2-yl-isoxazol-4-yl)-ethyl]-thiazole-5-carboxylic acid (2,2,2-trifluoro-ethyl)-amide] |
| 40.2 nM | COC(=O)c1cnc(CCc2c(-c3ccccn3)noc2C)s1 [Example 21, 2-[2-(5-Methyl-3-pyridin-2-yl-isoxazol-4-yl)-ethyl]-thiazole-5-carboxylic acid methyl ester] |
| 18.1 nM | Cc1onc(-c2ccccn2)c1CCc1ncc(C(=O)NC(C)C)s1 [Example 22, 2-[2-(5-Methyl-3-pyridin-2-yl-isoxazol-4-yl)-ethyl]-thiazole-5-carboxylic acid isopropylamide] |
| 26.1 nM | Cc1onc(-c2ccccn2)c1CCc1ncc(C(=O)NC2CC2)s1 [Example 23, 2-[2-(5-Methyl-3-pyridin-2-yl-isoxazol-4-yl)-ethyl]-thiazole-5-carboxylic acid cyclo-propylamide] |
| 18.8 nM | Cc1onc(-c2ccccn2)c1CCc1ncc(C(=O)NC2CCOCC2)s1 [Example 24, 2-[2-(5-Methyl-3-pyridin-2-yl-isoxazol-4-yl)-ethyl]-thiazole-5-carboxylic acid (tetra-hydro-pyran-4-yl)-amide] |
| 33.6 nM | Cc1onc(-c2ccccn2)c1CCc1ncc(C(N)=O)s1 [Example 25, 2-[2-(5-Methyl-3-pyridin-2-yl-isoxazol-4-yl)-ethyl]-thiazole-5-carboxylic acid amide] |
| 34.7 nM | Cc1onc(-c2ccccn2)c1CCc1ncc(C(=O)NCC2CC2)s1 [Example 26, 2-[2-(5-Methyl-3-pyridin-2-yl-isoxazol-4-yl)-ethyl]-thiazole-5-carboxylic acid cyclo-propylmethyl-amide] |
| 14 nM | Cc1onc(-c2ccccn2)c1CCc1ncc(C(=O)NC2CCS(=O)(=O)C2)s1 (stereo not drawn) [Example 27, 2-[2-(5-Methyl-3-pyridin-2-yl-isoxazol-4-yl)-ethyl]-thiazole-5-carboxylic acid (1,1-dioxo-tetrahydrothiophen-3-yl)-amide] |
